From PubChem BioAssay AID1918999 (Molecular Pharmacology Branch, DTP, NCI, 2023)

Test system: 556581-035-R-J1-PDC complex spheroid growth
Experiment: Anticancer human tumor 556581-035-R-J1-PDC patient-derived ovarian carcinoma cell line growth inhibition [AhR]
Details: for IC50: curve of first compound; for viability, T/C: stronger effect = lower value
How it was run: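 Agents were dosed in half-log steps down from roughly clinical Cmax, or from 10 microM where Cmax was unknown, alone and with AhR antagonists. Read-out: percent test/control growth of tumor spheroids containing HUVEC and MSC stromal cells.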

[1] = second compound 0.1 µM, first compound 0.00949 µM
[2] = second compound 0.1 µM, first compound 0.03 µM
[3] = second compound 0.1 µM, first compound 0.0949 µM
[4] = second compound 0.1 µM, first compound 0.3 µM
[5] = second compound 0.1 µM, first compound 0.949 µM
[6] = second compound 0.1 µM, first compound 3 µM
[7] = second compound 0.316 µM, first compound 0.00949 µM
[8] = second compound 0.316 µM, first compound 0.03 µM
[9] = second compound 0.316 µM, first compound 0.0949 µM
[10] = second compound 0.316 µM, first compound 0.3 µM
[11] = second compound 0.316 µM, first compound 0.949 µM
[12] = second compound 0.316 µM, first compound 3 µM
[13] = second compound 1 µM, first compound 0.00949 µM
[14] = second compound 1 µM, first compound 0.03 µM
[15] = second compound 1 µM, first compound 0.0949 µM
[16] = second compound 1 µM, first compound 0.3 µM
[17] = second compound 1 µM, first compound 0.949 µM
[18] = second compound 1 µM, first compound 3 µM
[19] = second compound 3.16 µM, first compound 0.00949 µM
[20] = second compound 3.16 µM, first compound 0.03 µM
[21] = second compound 3.16 µM, first compound 0.0949 µM
[22] = second compound 3.16 µM, first compound 0.3 µM
[23] = second compound 3.16 µM, first compound 0.949 µM
[24] = second compound 3.16 µM, first compound 3 µM
[25] = second compound 10 µM, first compound 0.00949 µM
[26] = second compound 10 µM, first compound 0.03 µM
[27] = second compound 10 µM, first compound 0.0949 µM
[28] = second compound 10 µM, first compound 0.3 µM
[29] = second compound 10 µM, first compound 0.949 µM
[30] = second compound 10 µM, first compound 3 µM
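Wherever viability, T/C is given: compound exposure lasted 7 days; 100% = DMSO vehicle control growth.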

CCN(c1cc(-c2ccc(CN3CCOCC3)cc2)cc(C(=O)NCc2c(C)cc(C)[nH]c2=O)c1C)C1CCOCC1 + CC(CO)NC(=O)c1cc(-c2ccc(Cl)cc2)nn(-c2cnn(C)c2)c1=O was tested, and the IC50 (second compound 0.1 µM) was > 3 µM, the IC50 (second compound 0.316 µM) was > 3 µM and the IC50 (second compound 1 µM) was > 3 µM. The IC50 (second compound 3.16 µM) was > 3 µM, the IC50 (second compound 10 µM) was > 3 µM and the viability, T/C [1] was 103%. The viability, T/C [2] was 102%, the viability, T/C [3] was 94.7% and the viability, T/C [4] was 94.7%. For the same molecule, the viability, T/C [5] was 102%, the viability, T/C [6] was 91.8% and the viability, T/C [7] was 102%. The viability, T/C [8] was 91.2%, the viability, T/C [9] was 96.5% and the viability, T/C [10] was 92.2%. It also gave a viability, T/C [11] of 108%, a viability, T/C [12] of 91.8% and a viability, T/C [13] of 106%. It also gave a viability, T/C [14] of 106%, a viability, T/C [15] of 117% and a viability, T/C [16] of 105%. The viability, T/C [17] was 87.8%, the viability, T/C [18] was 106% and the viability, T/C [19] was 106%. It also gave a viability, T/C [20] of 99.7%, a viability, T/C [21] of 90.7% and a viability, T/C [22] of 95%. It also gave a viability, T/C [23] of 100%, a viability, T/C [24] of 87.9% and a viability, T/C [25] of 94.9%. The viability, T/C [26] was 101%, the viability, T/C [27] was 113% and the viability, T/C [28] was 94.6%. It also gave a viability, T/C [29] of 89.8% and a viability, T/C [30] of 94.8%.
For Nc1ncn(C2CC(O)C(CO)S2)c(=O)n1 (stereo not given) + CC(CO)NC(=O)c1cc(-c2ccc(Cl)cc2)nn(-c2cnn(C)c2)c1=O, the IC50 (second compound 0.1 µM) was > 0.3 µM, the IC50 (second compound 0.316 µM) was > 0.3 µM and the IC50 (second compound 1 µM) was > 0.3 µM. For the same molecule, the IC50 (second compound 3.16 µM) was > 0.3 µM, the IC50 (second compound 10 µM) was > 0.3 µM and the viability, T/C (second compound 0.1 µM, first compound 0.000949 µM) was 122%. The viability, T/C (second compound 0.1 µM, first compound 0.003 µM) was 117%, the viability, T/C [1] was 106% and the viability, T/C [2] was 115%. For the same molecule, the viability, T/C [3] was 109%, the viability, T/C [4] was 73.3% and the viability, T/C (second compound 0.316 µM, first compound 0.000949 µM) was 112%. It also gave a viability, T/C (second compound 0.316 µM, first compound 0.003 µM) of 106%, a viability, T/C [7] of 116% and a viability, T/C [8] of 111%. The viability, T/C [9] was 100%, the viability, T/C [10] was 69.9% and the viability, T/C (second compound 1 µM, first compound 0.000949 µM) was 114%. It also gave a viability, T/C (second compound 1 µM, first compound 0.003 µM) of 131%, a viability, T/C [13] of 126% and a viability, T/C [14] of 121%. For the same molecule, the viability, T/C [15] was 108%, the viability, T/C [16] was 80.2% and the viability, T/C (second compound 3.16 µM, first compound 0.000949 µM) was 123%. The viability, T/C (second compound 3.16 µM, first compound 0.003 µM) was 128%, the viability, T/C [19] was 125% and the viability, T/C [20] was 109%. For the same molecule, the viability, T/C [21] was 97.1%, the viability, T/C [22] was 80.8% and the viability, T/C (second compound 10 µM, first compound 0.000949 µM) was 122%. For the same molecule, the viability, T/C (second compound 10 µM, first compound 0.003 µM) was 111%, the viability, T/C [25] was 111% and the viability, T/C [26] was 125%. The viability, T/C [27] was 106% and the viability, T/C [28] was 84%.
O=C(C=Cn1cnc(-c2cc(C(F)(F)F)cc(C(F)(F)F)c2)n1)NNc1cnccn1 + CC(CO)NC(=O)c1cc(-c2ccc(Cl)cc2)nn(-c2cnn(C)c2)c1=O was tested, and the IC50 (second compound 0.1 µM) was > 3 µM, the IC50 (second compound 0.316 µM) was > 3 µM and the IC50 (second compound 1 µM) was > 3 µM. The IC50 (second compound 3.16 µM) was > 3 µM, the IC50 (second compound 10 µM) was > 3 µM and the viability, T/C [1] was 84%. The viability, T/C [2] was 84.2%, the viability, T/C [3] was 87.6% and the viability, T/C [4] was 69.3%. The viability, T/C [5] was 66.9%, the viability, T/C [6] was 62.5% and the viability, T/C [7] was 87.3%. The viability, T/C [8] was 93%, the viability, T/C [9] was 81% and the viability, T/C [10] was 76%. For the same molecule, the viability, T/C [11] was 71.2%, the viability, T/C [12] was 66% and the viability, T/C [13] was 88.7%. For the same molecule, the viability, T/C [14] was 103%, the viability, T/C [15] was 84% and the viability, T/C [16] was 73.8%. It also gave a viability, T/C [17] of 68.2%, a viability, T/C [18] of 65.8% and a viability, T/C [19] of 98.2%. It also gave a viability, T/C [20] of 81.4%, a viability, T/C [21] of 80.5% and a viability, T/C [22] of 70%. It also gave a viability, T/C [23] of 62.7%, a viability, T/C [24] of 63% and a viability, T/C [25] of 93.1%. The viability, T/C [26] was 80%, the viability, T/C [27] was 75.9% and the viability, T/C [28] was 77.9%. It also gave a viability, T/C [29] of 72.7% and a viability, T/C [30] of 72.7%.
